Laboratory results: ChEMBL document CHEMBL4507289, “Data for DCP probe GSM1” (2021)

How the values were obtained:
[1] = target: Cyclin-dependent kinase 4 (Homo sapiens) (UniProt P11802); conditions: Compound concentration 1000.0 nM
[2] = target: Dual specificity mitogen-activated protein kinase kinase 3 (Homo sapiens) (UniProt P46734); conditions: Compound concentration 1000.0 nM
[3] = target: Rhodopsin kinase GRK7 (Homo sapiens) (UniProt Q8WTQ7); conditions: Compound concentration 1000.0 nM
[4] = target: Interleukin-1 receptor-associated kinase 4 (Homo sapiens) (UniProt Q9NWZ3); conditions: Compound concentration 1000.0 nM
[5] = target: Phosphatidylinositol 4-phosphate 5-kinase type-1 alpha (Homo sapiens) (UniProt Q99755); conditions: Compound concentration 1000.0 nM
[6] = target: Homeodomain-interacting protein kinase 3 (Homo sapiens) (UniProt Q9H422); conditions: Compound concentration 1000.0 nM
[7] = tested on: Tyrosine-protein kinase ABL1 (Homo sapiens), P00519 [Q252H]; conditions: Compound concentration 1000.0 nM
[8] = target: Receptor-interacting serine/threonine-protein kinase 1 (Homo sapiens) (UniProt Q13546); conditions: Compound concentration 1000.0 nM
[9] = tested on: Phosphatidylinositol 4,5-bisphosphate 3-kinase catalytic subunit alpha isoform (Homo sapiens), P42336 [E545K]; conditions: Compound concentration 1000.0 nM
Chain of Phosphatidylinositol 4,5-bisphosphate 3-kinase catalytic subunit alpha isoform (Homo sapiens), P42336 [E545K] (P42336 whole entry E545K, canonical isoform): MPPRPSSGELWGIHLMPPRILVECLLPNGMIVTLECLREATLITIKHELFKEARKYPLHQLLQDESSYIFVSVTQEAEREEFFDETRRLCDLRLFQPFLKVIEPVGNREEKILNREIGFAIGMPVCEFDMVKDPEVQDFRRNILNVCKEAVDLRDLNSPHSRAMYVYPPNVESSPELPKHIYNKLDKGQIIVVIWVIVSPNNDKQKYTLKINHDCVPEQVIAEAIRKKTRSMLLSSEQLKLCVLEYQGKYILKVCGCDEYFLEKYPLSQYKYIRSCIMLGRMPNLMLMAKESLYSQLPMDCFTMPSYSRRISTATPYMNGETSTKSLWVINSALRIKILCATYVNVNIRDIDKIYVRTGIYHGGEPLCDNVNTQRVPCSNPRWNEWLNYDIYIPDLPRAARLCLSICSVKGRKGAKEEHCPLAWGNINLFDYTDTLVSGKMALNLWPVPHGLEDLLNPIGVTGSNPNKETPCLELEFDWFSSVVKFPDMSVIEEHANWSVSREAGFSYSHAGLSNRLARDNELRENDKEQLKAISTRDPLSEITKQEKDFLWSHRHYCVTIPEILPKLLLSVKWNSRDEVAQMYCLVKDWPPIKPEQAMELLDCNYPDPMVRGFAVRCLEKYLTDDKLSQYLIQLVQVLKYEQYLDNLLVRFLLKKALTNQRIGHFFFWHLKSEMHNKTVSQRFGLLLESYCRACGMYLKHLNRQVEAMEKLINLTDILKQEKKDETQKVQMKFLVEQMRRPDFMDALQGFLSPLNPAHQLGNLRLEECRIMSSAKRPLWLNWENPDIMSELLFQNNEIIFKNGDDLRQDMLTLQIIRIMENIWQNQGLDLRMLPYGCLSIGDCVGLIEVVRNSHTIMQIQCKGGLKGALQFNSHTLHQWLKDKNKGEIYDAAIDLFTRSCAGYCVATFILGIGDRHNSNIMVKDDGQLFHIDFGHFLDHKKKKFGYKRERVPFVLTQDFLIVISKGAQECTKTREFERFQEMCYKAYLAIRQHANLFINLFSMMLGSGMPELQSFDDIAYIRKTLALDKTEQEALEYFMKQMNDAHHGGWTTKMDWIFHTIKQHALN

[10] = target: Histamine H1 receptor (Homo sapiens) (UniProt P35367); conditions: Compound concentration 10.0 uM
[11] = target: Ephrin type-A receptor 2 (Homo sapiens) (UniProt P29317); conditions: Compound concentration 1000.0 nM
Chain of Ephrin type-A receptor 2 (Homo sapiens) (P29317 whole entry, the tested form may be a part): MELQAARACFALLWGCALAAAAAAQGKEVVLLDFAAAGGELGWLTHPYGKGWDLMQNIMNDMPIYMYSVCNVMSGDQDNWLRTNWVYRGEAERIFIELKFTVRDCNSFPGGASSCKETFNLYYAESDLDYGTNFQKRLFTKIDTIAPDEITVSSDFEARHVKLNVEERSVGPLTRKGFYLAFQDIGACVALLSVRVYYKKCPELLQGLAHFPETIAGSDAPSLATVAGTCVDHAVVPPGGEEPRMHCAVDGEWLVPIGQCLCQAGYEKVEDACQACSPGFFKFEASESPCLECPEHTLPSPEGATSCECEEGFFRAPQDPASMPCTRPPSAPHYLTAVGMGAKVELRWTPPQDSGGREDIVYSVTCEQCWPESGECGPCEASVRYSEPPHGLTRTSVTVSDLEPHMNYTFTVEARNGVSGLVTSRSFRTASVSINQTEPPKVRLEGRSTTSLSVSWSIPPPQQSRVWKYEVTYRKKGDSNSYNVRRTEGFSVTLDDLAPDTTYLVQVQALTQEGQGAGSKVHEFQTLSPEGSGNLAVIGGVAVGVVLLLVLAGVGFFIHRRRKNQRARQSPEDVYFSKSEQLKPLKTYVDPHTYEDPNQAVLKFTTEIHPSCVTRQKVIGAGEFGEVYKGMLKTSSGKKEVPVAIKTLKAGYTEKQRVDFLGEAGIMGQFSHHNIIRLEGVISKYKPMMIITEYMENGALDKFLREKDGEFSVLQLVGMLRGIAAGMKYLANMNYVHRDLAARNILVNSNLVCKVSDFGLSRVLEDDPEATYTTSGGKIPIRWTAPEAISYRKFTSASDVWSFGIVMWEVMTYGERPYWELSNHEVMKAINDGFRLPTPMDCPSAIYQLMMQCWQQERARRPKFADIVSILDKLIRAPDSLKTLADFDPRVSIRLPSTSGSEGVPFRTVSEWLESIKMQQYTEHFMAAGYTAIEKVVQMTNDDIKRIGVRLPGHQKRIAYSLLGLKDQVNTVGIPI

[12] = target: LIM domain kinase 1 (Homo sapiens) (UniProt P53667); conditions: Compound concentration 1000.0 nM
[13] = target: Mitogen-activated protein kinase kinase kinase kinase 5 (Homo sapiens) (UniProt Q9Y4K4); conditions: Compound concentration 1000.0 nM
[14] = target: Tyrosine-protein kinase JAK1 (Homo sapiens) (UniProt P23458); conditions: Compound concentration 1000.0 nM
Chain of Tyrosine-protein kinase JAK1 (Homo sapiens) (P23458 whole entry): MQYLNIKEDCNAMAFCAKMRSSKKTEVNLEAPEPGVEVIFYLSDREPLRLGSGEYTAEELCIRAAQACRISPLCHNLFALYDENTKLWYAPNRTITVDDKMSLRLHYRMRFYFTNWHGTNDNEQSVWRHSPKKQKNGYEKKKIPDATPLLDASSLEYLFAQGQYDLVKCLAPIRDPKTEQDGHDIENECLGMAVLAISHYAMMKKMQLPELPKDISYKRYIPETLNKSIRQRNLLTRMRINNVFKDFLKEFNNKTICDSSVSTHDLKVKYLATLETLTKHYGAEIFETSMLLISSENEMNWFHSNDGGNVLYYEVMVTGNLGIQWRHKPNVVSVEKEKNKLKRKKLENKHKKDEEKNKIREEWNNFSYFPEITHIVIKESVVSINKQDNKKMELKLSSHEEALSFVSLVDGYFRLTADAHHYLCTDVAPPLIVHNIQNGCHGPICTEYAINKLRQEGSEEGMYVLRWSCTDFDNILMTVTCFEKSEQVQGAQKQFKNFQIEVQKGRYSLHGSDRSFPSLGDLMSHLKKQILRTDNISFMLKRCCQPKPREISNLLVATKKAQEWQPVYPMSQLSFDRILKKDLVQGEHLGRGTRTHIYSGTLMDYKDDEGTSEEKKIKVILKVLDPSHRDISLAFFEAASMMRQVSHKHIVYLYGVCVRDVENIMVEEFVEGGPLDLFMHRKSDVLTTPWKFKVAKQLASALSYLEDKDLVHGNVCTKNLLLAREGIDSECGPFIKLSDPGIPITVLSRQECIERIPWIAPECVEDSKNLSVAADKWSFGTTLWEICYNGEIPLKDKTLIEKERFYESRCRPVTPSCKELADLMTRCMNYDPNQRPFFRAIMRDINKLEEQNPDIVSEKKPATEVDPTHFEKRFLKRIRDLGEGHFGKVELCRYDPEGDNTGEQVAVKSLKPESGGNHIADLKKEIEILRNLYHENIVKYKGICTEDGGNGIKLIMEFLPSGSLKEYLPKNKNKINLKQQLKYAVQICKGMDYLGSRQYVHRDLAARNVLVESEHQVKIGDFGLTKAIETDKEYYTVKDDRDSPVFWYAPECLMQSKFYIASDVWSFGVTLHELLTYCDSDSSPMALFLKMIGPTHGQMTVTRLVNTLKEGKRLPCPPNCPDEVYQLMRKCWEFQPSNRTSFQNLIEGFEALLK

[15] = target: Myosin light chain kinase (Homo sapiens) (UniProt Q32MK0); conditions: Compound concentration 1000.0 nM
[16] = target: Ephrin type-A receptor 7 (Homo sapiens) (UniProt Q15375); conditions: Compound concentration 1000.0 nM
[17] = target: Tyrosine-protein kinase ABL2 (Homo sapiens) (UniProt P42684); conditions: Compound concentration 1000.0 nM
[18] = tested on: Receptor-type tyrosine-protein kinase FLT3 (Homo sapiens), P36888 [R834Q]; conditions: Compound concentration 1000.0 nM
[19] = target: Activated CDC42 kinase 1 (Homo sapiens) (UniProt Q07912); conditions: Compound concentration 1000.0 nM
[20] = target: Serine/threonine-protein kinase RIO3 (Homo sapiens) (UniProt O14730); conditions: Compound concentration 1000.0 nM
[21] = target: Phosphatidylinositol 4,5-bisphosphate 3-kinase catalytic subunit alpha isoform (Homo sapiens) (UniProt P42336); conditions: Compound concentration 1000.0 nM
Chain of Phosphatidylinositol 4,5-bisphosphate 3-kinase catalytic subunit alpha isoform (Homo sapiens) (P42336 whole entry, canonical isoform): as the sequence (P42336 whole entry E545K, canonical isoform) above, with K545E counted along it

[22] = target: Sigma intracellular receptor 2 (Homo sapiens, UniProt Q5BJF2); conditions: Compound concentration 10.0 uM
[23] = target: Serine/threonine-protein kinase 10 (Homo sapiens) (UniProt O94804); conditions: Compound concentration 1000.0 nM
[24] = tested on: Tyrosine-protein kinase ABL1 (Homo sapiens), P00519 [F317L]; conditions: Compound concentration 1000.0 nM
[25] = target: Serine/threonine-protein kinase tousled-like 1 (Homo sapiens) (UniProt Q9UKI8); conditions: Compound concentration 1000.0 nM
[26] = target: cAMP-dependent protein kinase catalytic subunit alpha (Homo sapiens) (UniProt P17612); conditions: Compound concentration 1000.0 nM
[27] = target: Homeodomain-interacting protein kinase 4 (Homo sapiens) (UniProt Q8NE63); conditions: Compound concentration 1000.0 nM
[28] = target: Cyclin-G-associated kinase (Homo sapiens) (UniProt O14976); conditions: Compound concentration 1000.0 nM
[29] = target: Sodium-dependent noradrenaline transporter (Homo sapiens, UniProt P23975); conditions: Compound concentration 10.0 uM
[30] = target: Serine/threonine-protein kinase DCLK2 (Homo sapiens) (UniProt Q8N568); conditions: Compound concentration 1000.0 nM
[31] = target: Cyclin-dependent kinase 8 (Homo sapiens) (UniProt P49336); conditions: Compound concentration 1000.0 nM
[32] = target: Serine/threonine-protein kinase MARK2 (Homo sapiens) (UniProt Q7KZI7); conditions: Compound concentration 1000.0 nM
Chain of Serine/threonine-protein kinase MARK2 (Homo sapiens) (Q7KZI7 whole entry): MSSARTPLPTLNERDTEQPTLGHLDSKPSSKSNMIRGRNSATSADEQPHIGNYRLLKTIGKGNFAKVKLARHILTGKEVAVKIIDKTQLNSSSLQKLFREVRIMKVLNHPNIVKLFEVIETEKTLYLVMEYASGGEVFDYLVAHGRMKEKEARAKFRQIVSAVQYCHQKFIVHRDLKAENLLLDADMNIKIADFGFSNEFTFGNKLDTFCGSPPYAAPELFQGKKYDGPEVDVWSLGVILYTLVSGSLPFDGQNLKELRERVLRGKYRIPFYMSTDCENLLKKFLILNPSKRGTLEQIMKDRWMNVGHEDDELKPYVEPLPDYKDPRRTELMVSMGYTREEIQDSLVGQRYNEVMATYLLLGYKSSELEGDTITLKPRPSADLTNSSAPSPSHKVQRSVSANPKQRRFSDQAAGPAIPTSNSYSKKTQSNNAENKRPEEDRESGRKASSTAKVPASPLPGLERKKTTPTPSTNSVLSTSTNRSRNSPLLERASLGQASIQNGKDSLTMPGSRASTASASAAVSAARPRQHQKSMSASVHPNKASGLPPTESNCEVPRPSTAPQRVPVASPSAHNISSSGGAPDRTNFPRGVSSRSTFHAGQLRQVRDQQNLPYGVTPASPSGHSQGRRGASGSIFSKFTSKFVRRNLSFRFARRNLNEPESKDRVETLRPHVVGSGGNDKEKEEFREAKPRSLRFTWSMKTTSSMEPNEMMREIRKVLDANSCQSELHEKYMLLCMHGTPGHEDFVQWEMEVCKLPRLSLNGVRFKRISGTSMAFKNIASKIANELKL

[33] = target: Dual serine/threonine and tyrosine protein kinase (Homo sapiens) (UniProt Q6XUX3); conditions: Compound concentration 1000.0 nM
[34] = target: Serine/threonine-protein kinase STK11 (Homo sapiens) (UniProt Q15831); conditions: Compound concentration 1000.0 nM
[35] = target: 1-phosphatidylinositol 3-phosphate 5-kinase (Homo sapiens) (UniProt Q9Y2I7); conditions: Compound concentration 1000.0 nM
[36] = target: Serine/threonine-protein kinase Sgk3 (Homo sapiens) (UniProt Q96BR1); conditions: Compound concentration 1000.0 nM
[37] = target: Mitogen-activated protein kinase kinase kinase 12 (Homo sapiens) (UniProt Q12852); conditions: Compound concentration 1000.0 nM
[38] = target: Mitotic checkpoint serine/threonine-protein kinase BUB1 (Homo sapiens) (UniProt O43683); conditions: Compound concentration 1000.0 nM
[39] = target: SRSF protein kinase 3 (Homo sapiens) (UniProt Q9UPE1); conditions: Compound concentration 1000.0 nM
[40] = target: Serine/threonine-protein kinase 32C (Homo sapiens) (UniProt Q86UX6); conditions: Compound concentration 1000.0 nM
[41] = target: Platelet-derived growth factor receptor alpha (Homo sapiens) (UniProt P16234); conditions: Compound concentration 1000.0 nM
Chain of Platelet-derived growth factor receptor alpha (Homo sapiens) (P16234 whole entry): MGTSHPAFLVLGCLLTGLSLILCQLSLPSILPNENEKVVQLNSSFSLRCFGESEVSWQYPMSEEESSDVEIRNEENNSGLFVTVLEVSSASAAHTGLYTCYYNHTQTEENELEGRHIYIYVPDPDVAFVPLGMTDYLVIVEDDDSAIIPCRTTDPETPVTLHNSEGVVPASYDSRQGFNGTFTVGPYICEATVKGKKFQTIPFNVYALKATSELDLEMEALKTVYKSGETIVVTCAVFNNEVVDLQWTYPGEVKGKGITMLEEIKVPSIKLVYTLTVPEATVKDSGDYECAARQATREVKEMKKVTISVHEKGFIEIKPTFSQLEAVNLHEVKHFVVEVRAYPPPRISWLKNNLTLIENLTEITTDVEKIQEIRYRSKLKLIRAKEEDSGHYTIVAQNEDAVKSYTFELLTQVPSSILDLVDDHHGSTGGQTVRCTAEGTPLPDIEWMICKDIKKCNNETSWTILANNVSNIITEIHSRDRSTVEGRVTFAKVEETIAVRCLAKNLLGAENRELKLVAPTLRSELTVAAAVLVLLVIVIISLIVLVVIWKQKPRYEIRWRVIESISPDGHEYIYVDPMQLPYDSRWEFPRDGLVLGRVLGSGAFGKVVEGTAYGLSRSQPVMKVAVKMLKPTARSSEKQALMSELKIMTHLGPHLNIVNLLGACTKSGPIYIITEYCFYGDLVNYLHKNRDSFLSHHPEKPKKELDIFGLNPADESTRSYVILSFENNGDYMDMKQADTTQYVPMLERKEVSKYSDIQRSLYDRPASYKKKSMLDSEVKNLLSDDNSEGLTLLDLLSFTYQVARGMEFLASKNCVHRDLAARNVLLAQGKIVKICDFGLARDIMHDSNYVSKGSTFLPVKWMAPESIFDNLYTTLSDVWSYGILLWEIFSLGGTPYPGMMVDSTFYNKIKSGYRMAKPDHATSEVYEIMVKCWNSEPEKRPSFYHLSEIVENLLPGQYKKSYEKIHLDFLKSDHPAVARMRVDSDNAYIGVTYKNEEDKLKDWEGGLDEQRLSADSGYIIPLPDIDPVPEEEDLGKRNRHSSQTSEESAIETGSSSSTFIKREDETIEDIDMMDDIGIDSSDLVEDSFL

[42] = target: Serine/threonine-protein kinase ULK1 (Homo sapiens) (UniProt O75385); conditions: Compound concentration 1000.0 nM
[43] = target: Myosin light chain kinase family member 4 (Homo sapiens) (UniProt Q86YV6); conditions: Compound concentration 1000.0 nM
[44] = target: Casein kinase I isoform alpha (Homo sapiens) (UniProt P48729); conditions: Compound concentration 1000.0 nM
[45] = target: Calcium/calmodulin-dependent protein kinase type II subunit delta (Homo sapiens) (UniProt Q13557); conditions: Compound concentration 1000.0 nM

COc1cc(-c2cn([C@H]3CCc4c(F)cccc4N(CC(F)(F)F)C3=O)nn2)ccc1-n1cnc(C)c1
residual activity [1]: 100% | residual activity [2]: 100% | residual activity [3]: 100% | residual activity [4]: 100% | residual activity [5]: 100% | residual activity [6]: 100% | residual activity [7]: 95% | residual activity [8]: 100% | residual activity [9]: 70% | inhibition [10]: 7.55% | residual activity [11]: 100% | residual activity [12]: 100% | residual activity [13]: 5.8% | residual activity [14]: 100% | residual activity [15]: 92% | residual activity [16]: 100% | residual activity [17]: 100% | residual activity [18]: 100% | residual activity [19]: 100% | residual activity [20]: 100% | residual activity [21]: 94% | inhibition [22]: 50% | residual activity [23]: 100% | residual activity [24]: 78% | residual activity [25]: 100% | residual activity [26]: 100% | residual activity [27]: 100% | residual activity [28]: 88% | inhibition [29]: 87.1% | residual activity [30]: 100% | residual activity [31]: 100% | residual activity [32]: 100% | residual activity [33]: 100% | residual activity [34]: 100% | residual activity [35]: 100% | residual activity [36]: 100% | residual activity [37]: 100% | residual activity [38]: 100% | residual activity [39]: 100% | residual activity [40]: 100% | residual activity [41]: 100% | residual activity [42]: 100% | residual activity [43]: 100% | residual activity [44]: 100% | residual activity [45]: 100%

COc1cc(-c2cn([C@H]3CCc4ccccc4N(CC(F)(F)F)C3=O)nn2)ccc1-n1ccc(C)n1
residual activity [1]: 86% | residual activity [2]: 89% | residual activity [3]: 87% | residual activity [4]: 95% | residual activity [5]: 96% | residual activity [6]: 83% | residual activity [7]: 90% | residual activity [8]: 100% | residual activity [9]: 84% | inhibition [10]: 9.72% | residual activity [11]: 100% | residual activity [12]: 100% | residual activity [13]: 100% | residual activity [14]: 80% | residual activity [15]: 100% | residual activity [16]: 100% | residual activity [17]: 100% | residual activity [18]: 100% | residual activity [19]: 100% | residual activity [20]: 100% | residual activity [21]: 69% | inhibition [22]: 72% | residual activity [23]: 100% | residual activity [24]: 57% | residual activity [25]: 84% | residual activity [26]: 100% | residual activity [27]: 100% | residual activity [28]: 92% | inhibition [29]: 49.4% | residual activity [30]: 92% | residual activity [31]: 90% | residual activity [32]: 93% | residual activity [33]: 100% | residual activity [34]: 100% | residual activity [35]: 100% | residual activity [36]: 84% | residual activity [37]: 100% | residual activity [38]: 94% | residual activity [39]: 100% | residual activity [40]: 84% | residual activity [41]: 88% | residual activity [42]: 76% | residual activity [43]: 100% | residual activity [44]: 98% | residual activity [45]: 100%
